# Read-outs that look alike come from different tables or passages of the source.
# Tests used:
# HepG2 = test: MTT cytotoxicity assay, HepG2; assay type: cell-based, human
# Experimental: (§1) The in vitro cytotoxicity of OD, 1–3 and the corresponding metal salts were determined by MTT assay towards a panel of human tumor cells including HepG2, T-24, BEL-7404, MGC80-3, SK-OV-3/DDP and normal HL-7702 cells. As the positive control, cisplatin was dissolved at a concentration of 1 mM in 0.154 M NaCl[32].
# (§2) The human tumor cell lines (BEL-7404, HepG2, MGC80–3, T-24, SK-OV-3/DDP and HeLa cells) and the human normal liver cell line HL-7702 were obtained from Shanghai Cell Bank in Chinese Academy of Sciences. Cells were cultured in Dulbecco’s modified Eagle’s medium (DMEM) or RPMI-1640 medium, which supplemented with 10% fetal bovine serum (FBS) and 100 U/mL penicillin and streptomycin. Cells were cultured at 37 °C in a humidified atmosphere with 5% CO2/95% air. Tested compounds (2.0 mM) were prepared as DMSO stock solution before they were diluted to working concentrations by PBS buffer (containing 0.5% DMSO), while cisplatin dissolved in 0.9% sodium chloride solution was used as positive controls.
# (§3) Cells in their logarithmic phase were seeded in 96-well plates with 5.5 × 10^3/180 μL per well for 24 h. Then 20 μL of compounds at various concentrations were added to each well to achieve final concentrations of 1.25, 2.5, 5.0, 10.0, and 20.0 μM. All the cells were incubated with test compounds for another 48 h before MTT assay. Control wells contained media with 0.5% DMSO. After 48 h of cultivation, 10 μL of MTT (5 mg/mL in PBS) was added to each well, and cells were incubated at 37 °C for 6 h. The contents in the wells were pipetted out carefully, and the formazan crystals formed were dissolved in 100 μL of DMSO, and the absorbance was measured by enzyme labeling instrument with 490 nm/630 nm double wavelength measurement. The IC50 value was defined as a drug concentration killing 50% cells in comparison with untreated controls, which was calculated by the Bliss method (n = 5). All tests were repeated in at least three independent trials.
# HepG2 cells [1] = test: Comet assay for DNA damage; assay type: cell-based, human; design: unit not given here; details: HepG2, 1.0 μM, 24 h
# Experimental: After the observation of significant S-phase arrest caused by 1–3, the study of DNA damage assay is necessary. The single cell gel electrophoresis technique (comet assay) is a simple, sensitive, reliable, and rapid method to detect DNA damage in eukaryotic cell[39]. As shown in Table 3 and Fig. 6, 1–3 at 1.0 μM induced DNA damage (fragmentation or unwinding) appeared as fluorescent comets with remarkable increase of tails size, especially for 3.
# The comet assay is a simple method for measuring DNA strand breaks in cells. The comet assay reagent kit was purchased from Trevigen, and the experiment was carried out according to the manufacturer’s instructions. After treatment with OD and 1–3 at 1.0 μM, HepG2 cells were harvested and suspended at 1 × 10^6 Hep-G2 cells/mL in PBS. The cells suspension was mixed with melted LM agarose at a ratio of 1:10 (v/v). An aliquot (75 μL) of the mixture was immediately pipetted onto the slide (Comet Slide TM). After refrigeration for 30 min, the slide was immersed in pre-chilled lysis solution and left on ice for 60 min, followed by immersing in freshly prepared alkaline solution (300 mM NaOH, 1 mM EDTA, pH > 13) for 60 min on ice in darkness. After DNA unwinding, the slide was subjected to alkaline solution for electrophoresis in a Savant ps 250 system set at 300 mA and 1 volt/cm for 30 min. After electrophoresis, the slide was rinsed with distilled H2O, fixed in 70% ethanol for 5 min and air-dried overnight. DNA was stained with SYBR Green I (Trevigen) and visualized under a fluorescence microscope (Nikon, Eclipse E600).
# MGC80-3 = test: MTT cytotoxicity assay, MGC80-3; assay type: cell-based, human
# Experimental: as §1, §2, §3
# SK-OV-3/DDP = test: MTT cytotoxicity assay, SK-OV-3/DDP; assay type: cell-based, human
# Experimental: as §1, §2, §3
# HepG2 cells [2] = test: Cell cycle analysis by flow cytometry; assay type: cell-based, human; details: HepG2, 0.5 and 1.0 μM, 24 h, compared to untreated cells
# Experimental: With the high cytotoxicity in vitro, HepG2 cells were selected to investigate the cell cycle treated with 1–3 (0.125, 0.25 and 0.5 μM) and OD (0.5 and 1.0 μM) for 24 h. […] However, 1–3 induced a significant increase of S-phase cell population in a dose-dependent manner.
# Cell cycle progression and apoptosis were determined by flow cytometric analysis. (a) Cell cycle arrest assay: HepG2 cells in their logarithmic phase were plated into 50 mL plates at a final density of 5−6 × 10^6 cells/well overnight, then they were treated with various doses (0.25, 0.5 and 1.0 μM) of 1–3 for another 24 h. Cells were trypsinized, collected, and fixed in ice-cold 75% ethanol at −20 °C overnight. After centrifugation, the fixed cells were rinsed with ice-cold phosphate buffered saline (PBS), and resuspended in 0.5 mL of PBS containing 100 μg/mL RNase, 50 μg/mL propidium iodide (PI) in the dark for 5−10 min. The cell cycle distribution was analyzed by FACS Calibur flow cytometer (BD) and calculated using ModFIT LT software. (b) Apoptosis assay: 1 × 10^5 HepG2 cells were plated in 6-well plates, after incubation for 24 h with complexes 1–3 at 1.0, 2.0 and 5.0 μM, cells were collected, and Apoptosis Detection kit FITC Annexin V was used to analyze the cell apoptosis according to the manufacturer’s instructions.
# HL-7702 = test: MTT cytotoxicity assay, normal liver cells HL-7702; assay type: cell-based, human; details: 48 h
# Experimental: as §1, §2, §3
# T-24 = test: MTT cytotoxicity assay, T-24; assay type: cell-based, human
# Experimental: as §1, §2, §3
# BEL-7404 [3] = test: MTT cytotoxicity assay, BEL-7404; assay type: cell-based, human
# Experimental: as §1, §2, §3
# [4] = tested on: HepG2, T-24, BEL-7404, MGC80-3, SK-OV-3/DDP; test: MTT cytotoxicity assay, panel of human tumor cells; assay type: cell-based; details: 48 h, range over all the tested tumor cells, read-out: inhibition rate
# Experimental: as §1, §2
# Cells in their logarithmic phase were seeded in 96-well plates with 5.5 × 10^3/180 μL per well for 24 h. […] The contents in the wells were pipetted out carefully, and the formazan crystals formed were dissolved in 100 μL of DMSO, and the absorbance was measured by enzyme labeling instrument with 490 nm/630 nm double wavelength measurement. […]
# Hep-G2 = details: read-out: Antitumor activity: IC50; cited from earlier work
# SK-OV-3 = tested on: SK-OV-3; design: method as in PMID 27898051; details: read-out: Antitumor activity: IC50; cited from earlier work
# NCI-H460 = details: read-out: Antitumor activity: IC50; cited from earlier work
# HT-29 = tested on: HT-29; design: method as in PMID 20023911; details: read-out: Antitumor activity: IC50; cited from earlier work
# A2780 = tested on: A2780; design: method as in PMID 20023911; details: read-out: Antitumor activity: IC50; cited from earlier work
# BEL-7404 [5] = details: read-out: Antitumor activity: IC50; cited from earlier work
smiles,measurement,setting,value
COc1cc2c(cc1O)C(=O)c1nccc3cc(OC(C)C)c(OC)c-2c13 [OD],inhibitive ratio,"HepG2; HepG2, 20 μmol/L, 48 h",33.35±0.32%
same,IC50,"HepG2; Homo sapiens, HepG2, 48 h, MTT",8.98 ± 0.76 µM
same,Comet length,HepG2 cells [1],49.45 ± 6.19
same,Olive tail moment,HepG2 cells [1],0.13 ± 0.29
same,Tail length,HepG2 cells [1],1.96 ± 1.78
same,Tail moment,HepG2 cells [1],0.12 ± 0.21
same,IC50,"MGC80-3; Homo sapiens, MGC-803, MGC80-3, 48 h, MTT",23.3 ± 0.88 µM
same,inhibitive ratio,"MGC80-3; MGC80-3, 20 μmol/L, 48 h",42.28±0.24%
same,IC50,"SK-OV-3/DDP; Homo sapiens, SK-OV-3/DDP, 48 h, MTT",38.5 ± 1.42 µM
same,folds higher cytotoxicity than cisplatin,"SK-OV-3/DDP; SK-OV-3/DDP, ratio of IC50",2 folds
same,inhibitive ratio,"SK-OV-3/DDP; SKOV-3/DDP, 20 μmol/L, 48 h",45.57±1.94%
same,effect on the population of the cell cycle,HepG2 cells [2],barely change the population of the cell cycle
same,inhibitive ratio,"HL-7702; HL-7702, 20 μmol/L",46.55±0.67%
same,IC50,"HL-7702; Homo sapiens, L02, HL-7702 normal liver cells, MTT",9.28 ± 0.43 µM
same,IC50,"T-24; Homo sapiens, T-24, 48 h, MTT",9.12 ± 0.11 µM
same,inhibitive ratio,"T-24; T-24, 20 μmol/L, 48 h",46.91±0.17%
same,inhibitive ratio,"BEL-7404 [3]; BEL-7404, 20 μmol/L, 48 h",36.28±0.18%
same,IC50,"BEL-7404 [3]; Homo sapiens, BEL-7404, 48 h, MTT",24.8 ± 1.02 µM
same,inhibition at 20 µM,[4],33 to 47%
Nc1c(Cl)ccc2c1-c1nccc3cccc(c13)C2=O.[Cl][Ni][Cl] [Complex C00006],IC50,Hep-G2,28.8 µM
same,IC50,SK-OV-3,29.1 µM
same,IC50,NCI-H460,35.2 µM
O=C1c2ccccc2-c2c3c(cc4ccnc1c24)OCO3.O=C1c2ccccc2-c2c3c(cc4ccnc1c24)OCO3.[Cl][Zn][Cl].[Cl][Zn][Cl] [Complex C00008],IC50,HT-29,5.8 µM
same,IC50,A2780,6.7 µM
same,IC50,BEL-7404 [5],8.4 µM
Nc1cccc2c1C(=O)c1cccc3ccnc-2c13.[Cl][Ni][Cl] [Complex C00005],IC50,Hep-G2,18.2 µM
same,IC50,SK-OV-3,15 µM
same,IC50,NCI-H460,15.6 µM

# Reference: publication PMC5402304, “Oxoaporphine Metal Complexes (Co^II, Ni^II, Zn^II) with High Antitumor Activity by Inducing Mitochondria-Mediated Apoptosis and S-phase Arrest in HepG2” (Scientific Reports, 2017)
